The source made the active and inactive calls.
How the values were obtained:
[1] = target: T1, Mannose-6-phosphate isomerase (Homo sapiens, UniProt P34949); assay: human PMI inhibitors, high substrate, primary screen, biochemical, fluorescence intensity, high mannose 6-phosphate (AID 1220)
T1 sequence (P34949 whole entry): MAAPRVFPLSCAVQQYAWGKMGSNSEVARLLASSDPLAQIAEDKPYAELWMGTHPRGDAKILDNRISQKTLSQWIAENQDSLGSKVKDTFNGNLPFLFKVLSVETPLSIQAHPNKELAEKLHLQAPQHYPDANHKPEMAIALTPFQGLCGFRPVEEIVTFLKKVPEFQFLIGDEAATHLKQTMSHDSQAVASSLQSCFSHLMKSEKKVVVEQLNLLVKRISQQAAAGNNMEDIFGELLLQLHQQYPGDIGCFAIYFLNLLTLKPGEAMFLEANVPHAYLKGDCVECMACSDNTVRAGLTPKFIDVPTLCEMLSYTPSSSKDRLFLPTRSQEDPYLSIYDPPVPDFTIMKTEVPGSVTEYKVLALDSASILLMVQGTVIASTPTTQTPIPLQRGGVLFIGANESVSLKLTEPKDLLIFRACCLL

[2] = target: T2, Caspase-3 (Homo sapiens, UniProt P42574); type: functional;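 also: Dose-response selectivity test against caspase-3 for candidate inhibitors of sentrin-specific proteases (SENPs)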
T2 sequence (P42574 whole entry): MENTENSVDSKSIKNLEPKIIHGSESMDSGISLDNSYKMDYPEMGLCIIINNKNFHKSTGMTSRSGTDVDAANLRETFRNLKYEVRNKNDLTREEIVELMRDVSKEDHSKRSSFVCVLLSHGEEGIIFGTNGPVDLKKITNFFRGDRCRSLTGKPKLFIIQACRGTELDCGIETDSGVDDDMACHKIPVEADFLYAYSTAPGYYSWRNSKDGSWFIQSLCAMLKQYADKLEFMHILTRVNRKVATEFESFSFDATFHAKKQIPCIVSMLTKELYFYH

[3] = target: T3, Sentrin-specific protease 7 (Homo sapiens, UniProt Q9BQF6); type: functional;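 also: Luminescence-based dose-response confirmation of ultra-high-throughput screening hits, measuring inhibition of SENP7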
T3 sequence (Q9BQF6 whole entry): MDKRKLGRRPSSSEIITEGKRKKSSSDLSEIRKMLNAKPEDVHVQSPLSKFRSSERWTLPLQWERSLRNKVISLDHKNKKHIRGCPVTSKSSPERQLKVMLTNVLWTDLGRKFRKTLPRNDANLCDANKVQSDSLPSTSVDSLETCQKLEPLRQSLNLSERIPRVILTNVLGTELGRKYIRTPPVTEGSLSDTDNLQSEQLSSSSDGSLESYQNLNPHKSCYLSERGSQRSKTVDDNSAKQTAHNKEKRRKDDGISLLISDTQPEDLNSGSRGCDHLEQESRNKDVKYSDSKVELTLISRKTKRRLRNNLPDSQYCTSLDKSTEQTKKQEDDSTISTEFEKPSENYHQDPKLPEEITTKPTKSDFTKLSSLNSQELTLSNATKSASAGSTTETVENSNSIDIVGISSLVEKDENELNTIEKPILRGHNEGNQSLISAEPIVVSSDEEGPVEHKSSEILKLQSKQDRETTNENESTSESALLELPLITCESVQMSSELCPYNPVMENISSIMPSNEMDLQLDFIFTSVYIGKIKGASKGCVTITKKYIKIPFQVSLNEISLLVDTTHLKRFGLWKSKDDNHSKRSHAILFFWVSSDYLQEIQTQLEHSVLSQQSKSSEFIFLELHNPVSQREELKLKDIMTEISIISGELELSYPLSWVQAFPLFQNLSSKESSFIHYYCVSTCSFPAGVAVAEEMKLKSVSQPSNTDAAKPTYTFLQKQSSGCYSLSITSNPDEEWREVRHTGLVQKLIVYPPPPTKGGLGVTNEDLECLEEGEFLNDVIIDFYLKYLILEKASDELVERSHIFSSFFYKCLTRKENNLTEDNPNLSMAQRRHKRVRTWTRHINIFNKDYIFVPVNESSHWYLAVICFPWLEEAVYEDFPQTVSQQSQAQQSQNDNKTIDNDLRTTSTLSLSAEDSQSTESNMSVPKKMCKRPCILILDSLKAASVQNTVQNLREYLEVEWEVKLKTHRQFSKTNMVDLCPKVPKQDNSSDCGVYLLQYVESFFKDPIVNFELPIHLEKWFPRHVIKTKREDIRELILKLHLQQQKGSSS

[4] = target: T4, Sentrin-specific protease 6 (Homo sapiens, UniProt Q9GZR1); type: functional;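 also: Luminescence-based dose-response confirmatory assay of SENP6 inhibition, following up an ultra-high-throughput screen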
T4 sequence (Q9GZR1 whole entry): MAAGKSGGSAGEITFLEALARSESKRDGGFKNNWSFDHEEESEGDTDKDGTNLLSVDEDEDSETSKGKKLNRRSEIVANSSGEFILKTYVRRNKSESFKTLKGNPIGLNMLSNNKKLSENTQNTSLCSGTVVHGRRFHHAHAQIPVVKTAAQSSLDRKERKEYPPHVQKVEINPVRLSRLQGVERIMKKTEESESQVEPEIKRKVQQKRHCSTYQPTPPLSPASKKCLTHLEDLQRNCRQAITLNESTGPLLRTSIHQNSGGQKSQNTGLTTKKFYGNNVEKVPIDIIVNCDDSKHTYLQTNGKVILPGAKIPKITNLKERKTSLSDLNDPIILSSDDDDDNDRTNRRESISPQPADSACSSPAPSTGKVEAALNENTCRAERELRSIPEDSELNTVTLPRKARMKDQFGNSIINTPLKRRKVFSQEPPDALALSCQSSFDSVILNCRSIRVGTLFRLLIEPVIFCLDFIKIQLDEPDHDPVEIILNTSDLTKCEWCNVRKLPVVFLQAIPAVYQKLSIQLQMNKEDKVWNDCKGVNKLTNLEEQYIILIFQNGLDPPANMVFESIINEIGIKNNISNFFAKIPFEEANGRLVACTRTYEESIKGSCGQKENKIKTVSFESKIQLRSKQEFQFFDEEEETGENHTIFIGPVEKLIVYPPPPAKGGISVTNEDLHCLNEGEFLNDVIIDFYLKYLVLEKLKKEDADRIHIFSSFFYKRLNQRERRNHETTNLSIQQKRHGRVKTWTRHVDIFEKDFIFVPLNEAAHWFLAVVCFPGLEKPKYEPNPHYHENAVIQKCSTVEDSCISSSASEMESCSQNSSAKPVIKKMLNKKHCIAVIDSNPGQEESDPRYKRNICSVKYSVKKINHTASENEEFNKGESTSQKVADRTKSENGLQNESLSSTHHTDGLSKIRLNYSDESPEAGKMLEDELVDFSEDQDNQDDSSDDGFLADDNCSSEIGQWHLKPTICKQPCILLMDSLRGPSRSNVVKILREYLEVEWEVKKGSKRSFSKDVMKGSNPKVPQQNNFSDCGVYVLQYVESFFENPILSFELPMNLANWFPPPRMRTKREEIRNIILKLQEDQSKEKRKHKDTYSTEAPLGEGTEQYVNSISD

[5] = target: T5, Sentrin-specific protease 8 (Homo sapiens, UniProt Q96LD8); type: functional;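 also: luminescence read-out of SENP8 inhibition, dose-response confirmation following an ultra-high-throughput screen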
T5 sequence (Q96LD8 whole entry): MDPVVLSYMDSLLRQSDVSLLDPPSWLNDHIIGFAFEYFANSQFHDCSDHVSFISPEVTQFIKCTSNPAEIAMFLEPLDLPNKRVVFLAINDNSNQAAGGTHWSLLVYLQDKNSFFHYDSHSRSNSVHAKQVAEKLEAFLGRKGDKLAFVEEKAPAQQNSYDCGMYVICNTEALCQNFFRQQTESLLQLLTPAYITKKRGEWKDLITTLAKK

[6] = target: T6, Heat shock factor protein 1 (Mus musculus, UniProt P38532); assay: HSF1 potentiators in luciferase reporter cells, confirmation, cell-based, NIH3T3, luminescence, dose retest (AID 435004); type: functional;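 also: stress induced by proteasome inhibitor MG132 added 30 min after compound; luciferase reporter driven by HSF1 response element in NIH3T3 cells; actives raise luminescence as potentiators of the MG132 stress response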
T6 sequence (P38532 whole entry): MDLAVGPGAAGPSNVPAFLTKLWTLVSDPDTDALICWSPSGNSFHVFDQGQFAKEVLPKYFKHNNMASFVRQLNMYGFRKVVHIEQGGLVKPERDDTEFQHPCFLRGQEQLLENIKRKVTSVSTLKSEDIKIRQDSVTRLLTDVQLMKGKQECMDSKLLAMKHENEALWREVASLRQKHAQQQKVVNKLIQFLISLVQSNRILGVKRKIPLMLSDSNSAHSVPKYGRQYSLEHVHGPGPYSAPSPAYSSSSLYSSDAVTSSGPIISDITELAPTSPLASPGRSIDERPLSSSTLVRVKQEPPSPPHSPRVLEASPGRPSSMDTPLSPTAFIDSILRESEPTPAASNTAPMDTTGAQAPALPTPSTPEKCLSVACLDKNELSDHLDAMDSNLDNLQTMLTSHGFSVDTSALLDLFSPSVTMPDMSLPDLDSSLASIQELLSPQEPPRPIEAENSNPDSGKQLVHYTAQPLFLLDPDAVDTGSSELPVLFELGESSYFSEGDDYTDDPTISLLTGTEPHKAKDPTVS

[7] = test system: H9c2; assay: cells; type: functional, cell-based; settings: Rattus norvegicus, H9c2, Myocardium;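 also: confirmatory concentration-response retest of ultra-high-throughput screening hits for modulation of myocardial damage; cell death induced by hydrogen peroxide oxidative stress; compound pretreatment for 60 min then peroxide exposure for 2 h; potency is for protecting the cells against peroxide damage rather than for killing them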
[8] = LGR2 antagonists, dose response, cell-based, HEK293, CRE-luciferase reporter, cherry pick, set 2 (AID 743343); type: functional;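 also: transfected cells were stimulated with diluted bursicon conditioned medium after compound addition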
[9] = MC4R antagonists, dose response, counter-screen for LGR2 antagonist project, cell-based, plate reader, cherry pick (AID 743444); type: functional;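 also: transfected HEK 293 cells stimulated with alpha-MSH peptide; potency of inhibitors of the alpha-MSH evoked signal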
[10] = target: T7, Replicative DNA helicase DnaB (Mycobacterium tuberculosis, UniProt P9WMR3); assay: DnaB intein splicing inhibitors, dose response, biochemical, cell-free fluorescence (AID 449749); type: functional
T7 sequence (P9WMR3 whole entry): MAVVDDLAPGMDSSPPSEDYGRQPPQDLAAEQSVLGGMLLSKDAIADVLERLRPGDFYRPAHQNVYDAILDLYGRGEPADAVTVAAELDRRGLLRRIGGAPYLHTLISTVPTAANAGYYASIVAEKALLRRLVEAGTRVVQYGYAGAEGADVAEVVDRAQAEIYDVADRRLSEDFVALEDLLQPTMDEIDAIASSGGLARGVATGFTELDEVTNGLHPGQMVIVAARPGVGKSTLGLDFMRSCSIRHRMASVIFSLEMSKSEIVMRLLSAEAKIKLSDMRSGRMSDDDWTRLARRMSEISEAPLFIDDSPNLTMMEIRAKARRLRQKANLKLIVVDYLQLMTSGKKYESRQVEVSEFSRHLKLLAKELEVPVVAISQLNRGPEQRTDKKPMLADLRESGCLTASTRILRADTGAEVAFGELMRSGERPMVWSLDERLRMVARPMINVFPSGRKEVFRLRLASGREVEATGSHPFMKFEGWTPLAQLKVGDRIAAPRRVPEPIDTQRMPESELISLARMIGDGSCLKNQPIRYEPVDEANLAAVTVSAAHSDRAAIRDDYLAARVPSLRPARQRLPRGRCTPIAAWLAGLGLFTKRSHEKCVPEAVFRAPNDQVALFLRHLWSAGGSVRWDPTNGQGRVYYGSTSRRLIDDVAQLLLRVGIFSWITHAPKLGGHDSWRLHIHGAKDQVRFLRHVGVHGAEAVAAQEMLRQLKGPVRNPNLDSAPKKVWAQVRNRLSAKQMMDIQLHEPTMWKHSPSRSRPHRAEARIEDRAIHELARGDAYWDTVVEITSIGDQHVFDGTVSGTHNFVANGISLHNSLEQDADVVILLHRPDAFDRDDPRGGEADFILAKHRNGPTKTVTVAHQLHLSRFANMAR

[11] = target: T8, Protein RecA (Mycobacterium tuberculosis, UniProt P9WHJ3); assay: Fluorescence Cell-Free Homogeneous Dose Retest to Identify Inhibitors of RecA-Intein Splicing Activity. [Related pubchem assays (depositor defined):AID2097, AID2223, AID489010, AID492950]; type: functional
T8 sequence (P9WHJ3 whole entry): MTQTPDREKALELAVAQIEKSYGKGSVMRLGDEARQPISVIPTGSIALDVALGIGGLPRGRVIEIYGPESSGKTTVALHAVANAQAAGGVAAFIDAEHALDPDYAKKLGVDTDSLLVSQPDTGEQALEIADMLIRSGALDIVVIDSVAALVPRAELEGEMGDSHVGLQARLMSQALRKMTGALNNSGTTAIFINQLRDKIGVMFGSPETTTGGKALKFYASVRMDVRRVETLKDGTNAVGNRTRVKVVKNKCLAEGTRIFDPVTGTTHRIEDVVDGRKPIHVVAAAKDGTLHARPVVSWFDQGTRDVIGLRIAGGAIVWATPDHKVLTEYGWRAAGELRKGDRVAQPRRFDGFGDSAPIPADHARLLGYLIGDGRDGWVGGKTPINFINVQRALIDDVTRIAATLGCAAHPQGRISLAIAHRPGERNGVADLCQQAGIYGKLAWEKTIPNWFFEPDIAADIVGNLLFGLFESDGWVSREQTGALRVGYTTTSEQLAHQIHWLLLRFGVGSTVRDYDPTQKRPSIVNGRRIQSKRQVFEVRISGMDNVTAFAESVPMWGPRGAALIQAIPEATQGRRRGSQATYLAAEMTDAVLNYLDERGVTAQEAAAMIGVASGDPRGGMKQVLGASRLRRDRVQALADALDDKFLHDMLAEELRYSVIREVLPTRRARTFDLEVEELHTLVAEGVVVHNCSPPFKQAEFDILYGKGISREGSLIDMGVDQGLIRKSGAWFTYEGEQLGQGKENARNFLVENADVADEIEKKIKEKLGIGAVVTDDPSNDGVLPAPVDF

Compound: Cc1ccc(S(=O)(=O)N(C)C)cc1NC(S)=Nc1ccc2c[nH]nc2c1
- IC50 [1]: > 50 µM (not active)

Compound: CCOc1ccc(-n2nc3cc(C)c(N)cc3n2)cc1
- IC50 [2]: 7.93 µM (active)
- IC50 [3]: 2.94 µM (active)
- IC50 [4]: 6.21 µM (active)
- IC50 [5]: 59.3 µM (active)

Compound: NC(=O)c1ccccc1OCC(=O)Nc1ccc(Cl)c(Cl)c1
- IC50 [2]: 37.8 µM (active)
- IC50 [3]: 10.4 µM (active)
- EC50 [6]: > 260 µM (inconclusive)
- IC50 [4]: > 100 µM (inactive)
- IC50 [5]: > 100 µM (inactive)

Compound: O=C(O)c1cccc(NC(=O)c2cccc(S(=O)(=O)N3CCc4ccccc43)c2)c1
- IC50 [2]: 90.5 µM (active)
- IC50 [3]: 9.85 µM (active)
- IC50 [4]: 23.7 µM (active)
- IC50 [5]: 24.4 µM (active)

Compound: COc1cc(NC(=O)c2cccc3c(-c4cnn(C)c4)coc23)cc(OC)c1OC
- IC50 [7]: > 79 µM (inactive)
- AC50 [8]: 24.3 µM (active)
- AC50 [9]: 17.9 µM (active)

Compound: Cc1ccc(C(=O)N/N=C/c2ccc(-c3ccccc3[N+](=O)[O-])o2)cn1
- IC50 [1]: > 50 µM (not active)
- AC50 [10]: 30.6 µM (active)
- EC50 [11]: 13.5 µM (active)

From ChEMBL document CHEMBL1201862, “PubChem BioAssay data set” (2004)
